From patent US4117142A, “Disubstituted triphenylmethylmidazoles for treating mycotic infections” (Bayer Aktiengesellschaft, priority 1972, dated 1978)
≈ marks a conversion by molar mass, not a printed value.

What was measured:
[1] = test system: Trichophyton mentagrophytes; assay: Series dilution test in vitro, minimum inhibitory concentration, Trichophyton mentagrophytes; assay type: cell-based; conditions: 28° C, 24 to 96 hours
Method: (§1) Determination of the antimycotic spectrum of activity in vitro by the series dilution test.
(§2) The nutrient media used were Sabouraud's milieu d'epreuve for dermatophyties and molds and meat broth-glucose bouillon for blastomyces and biphase fungi.
(§3) The incubation temperature was 28° C and the incubation time was 24 to 96 hours.

Candida Albicans [2] = assay: Series dilution test in vitro, minimum inhibitory concentration, Candida albicans; assay type: cell-based; conditions: 28° C, 24 to 96 hours
Method: as §1, §2, §3

Aspergillus niger = assay: Series dilution test in vitro, minimum inhibitory concentration, Aspergillus niger; assay type: cell-based; conditions: 28° C, 24 to 96 hours
Method: as §1, §2, §3

Candida albicans [3] = assay: Candidosis in mice, oral treatment; assay type: in vivo, Mice of the type SPF-C1; conditions: orally 50, 75, 100 and 150 mg/kg, one hour before and 7 hours after infection; untreated control ~5% survival
Method: Description of the experiment:
Mice of the type SPF-C1 were infected intravenously with 1-2 × 10^6 logarithmically-growing Candida cells suspended in physiological sodium chloride solution.
One hour before, and 7 hours after, the infection the animals are treated orally with 50, 75, 100 and 150 mg/kg of body weight of the preparations.
Untreated animals died of the infection 3 to 6 days after infection. The survival rate on the 6th day after infection was ~ 5% in untreated control animals.

Cc1cccc(C(c2ccccc2)(c2ccccc2)n2ccnc2)c1C [Example 1, 1-(2,3-dimethylphenyl-diphenyl)-methyl-imidazole]
MIC ([1]; n.s. = no added serum): < 1 µg/mL | MIC ([1]; w.s. = with 30% serum added): 4 µg/mL (≈ 11.8 µM) | MIC (Candida Albicans [2]; n.s. = no added serum): 1 µg/mL (≈ 2.95 µM) | MIC (Aspergillus niger; n.s. = no added serum): 4 µg/mL (≈ 11.8 µM) | MIC (Aspergillus niger; w.s. = with 30% serum added): 40 µg/mL (≈ 118 µM) | Action on candidosis in Mice (survival on the 6th day after infection) (Candida albicans [3]): +++++ (very good action = >90% survival on the 6th day after infection)

Cc1ccc(C(c2ccccc2)(c2ccccc2)n2ccnc2)c(C)c1 [Example 2, 1-(2,4-Dimethylphenyl-diphenyl)-methyl-imidazole]
Action on candidosis in Mice (survival on the 6th day after infection) (Candida albicans [3]): +++++ (very good action = >90% survival on the 6th day after infection)

Cc1ccc(C)c(C(c2ccccc2)(c2ccccc2)n2ccnc2)c1 [Example 3, 1-(2,5-Dimethylphenyl-diphenyl)-methyl-imidazole]
MIC ([1]; n.s. = no added serum): < 1 µg/mL | MIC ([1]; w.s. = with 30% serum added): 40 µg/mL (≈ 118 µM) | MIC (Candida Albicans [2]; n.s. = no added serum): 1 µg/mL (≈ 2.95 µM) | Action on candidosis in Mice (survival on the 6th day after infection) (Candida albicans [3]): ++++ (good action = >80% survival on the 6th day after infection)

Cc1cc(Cl)ccc1C(c1ccccc1)(c1ccccc1)n1ccnc1 [Example 4, 1-(2-Methyl-4-chlorophenyl-diphenyl)-methyl-imidazole]
MIC ([1]; n.s. = no added serum): < 1 µg/mL | MIC ([1]; w.s. = with 30% serum added): 10 µg/mL (≈ 27.9 µM) | MIC (Candida Albicans [2]; n.s. = no added serum): 1 µg/mL (≈ 2.79 µM) | MIC (Candida Albicans [2]; w.s. = with 30% serum added): 40 µg/mL (≈ 111 µM) | Action on candidosis in Mice (survival on the 6th day after infection) (Candida albicans [3]): +++++ (very good action = >90% survival on the 6th day after infection)

Clc1cccc(C(c2ccccc2)(c2ccccc2)n2ccnc2)c1Cl [Example 6, 1-(2,3-Dichlorophenyl-diphenyl)-methyl-imidazole]
Action on candidosis in Mice (survival on the 6th day after infection) (Candida albicans [3]): +++++ (very good action = >90% survival on the 6th day after infection)

Clc1cccc(Cl)c1C(c1ccccc1)(c1ccccc1)n1ccnc1 [Example 7, 1-(2,6-Dichlorophenyl-diphenyl)-methyl-imidazole]
MIC ([1]; n.s. = no added serum): < 1 µg/mL | MIC ([1]; w.s. = with 30% serum added): 4 µg/mL (≈ 10.5 µM) | MIC (Candida Albicans [2]; n.s. = no added serum): 1 µg/mL (≈ 2.64 µM) | Action on candidosis in Mice (survival on the 6th day after infection) (Candida albicans [3]): +++++ (very good action = >90% survival on the 6th day after infection)

Cc1ccccc1C(c1ccccc1)(c1ccccc1C)n1ccnc1 [Example 8, 1-(2-Methylphenyl-2'-methylphenyl-phenyl)-methyl-imidazole]
MIC ([1]; n.s. = no added serum): < 1 µg/mL | MIC ([1]; w.s. = with 30% serum added): 10 µg/mL (≈ 29.5 µM) | MIC (Candida Albicans [2]; n.s. = no added serum): 1 µg/mL (≈ 2.95 µM) | Action on candidosis in Mice (survival on the 6th day after infection) (Candida albicans [3]): +++++ (very good action = >90% survival on the 6th day after infection)

Clc1ccccc1C(c1ccccc1)(c1ccccc1Cl)n1ccnc1 [Example 9, 1-(2-Chlorophenyl-2'-chlorophenyl-phenyl)-methyl-imidazole]
MIC ([1]; n.s. = no added serum): < 1 µg/mL | MIC ([1]; w.s. = with 30% serum added): 4 µg/mL (≈ 10.5 µM) | MIC (Candida Albicans [2]; n.s. = no added serum): 1 µg/mL (≈ 2.64 µM) | MIC (Aspergillus niger; w.s. = with 30% serum added): 10 µg/mL (≈ 26.4 µM) | Action on candidosis in Mice (survival on the 6th day after infection) (Candida albicans [3]): ++++ (good action = >80% survival on the 6th day after infection)
